Data taken from PMC8494914, “Elexacaftor is a CFTR potentiator and acts synergistically with ivacaftor during acute and chronic treatment” (Scientific Reports, 2021).

How the values were obtained:
[1] = target: T1, cystic fibrosis transmembrane conductance regulator (CFTR) (Homo sapiens, UniProt P13569); assay: Ussing chamber transepithelial current, concentration-response of acute potentiation; assay type: cell-based
T1 construct: endogenous CFTR in non-CF human nasal epithelial cells

R117H-CFTR = target: T2, R117H-CFTR (Homo sapiens, UniProt P13569, R117H); assay: Ussing chamber transepithelial current, acute potentiation; assay type: cell-based
T2 construct: R117H-CFTR expressed in FRT cells
T2 sequence (P13569 whole entry R117H): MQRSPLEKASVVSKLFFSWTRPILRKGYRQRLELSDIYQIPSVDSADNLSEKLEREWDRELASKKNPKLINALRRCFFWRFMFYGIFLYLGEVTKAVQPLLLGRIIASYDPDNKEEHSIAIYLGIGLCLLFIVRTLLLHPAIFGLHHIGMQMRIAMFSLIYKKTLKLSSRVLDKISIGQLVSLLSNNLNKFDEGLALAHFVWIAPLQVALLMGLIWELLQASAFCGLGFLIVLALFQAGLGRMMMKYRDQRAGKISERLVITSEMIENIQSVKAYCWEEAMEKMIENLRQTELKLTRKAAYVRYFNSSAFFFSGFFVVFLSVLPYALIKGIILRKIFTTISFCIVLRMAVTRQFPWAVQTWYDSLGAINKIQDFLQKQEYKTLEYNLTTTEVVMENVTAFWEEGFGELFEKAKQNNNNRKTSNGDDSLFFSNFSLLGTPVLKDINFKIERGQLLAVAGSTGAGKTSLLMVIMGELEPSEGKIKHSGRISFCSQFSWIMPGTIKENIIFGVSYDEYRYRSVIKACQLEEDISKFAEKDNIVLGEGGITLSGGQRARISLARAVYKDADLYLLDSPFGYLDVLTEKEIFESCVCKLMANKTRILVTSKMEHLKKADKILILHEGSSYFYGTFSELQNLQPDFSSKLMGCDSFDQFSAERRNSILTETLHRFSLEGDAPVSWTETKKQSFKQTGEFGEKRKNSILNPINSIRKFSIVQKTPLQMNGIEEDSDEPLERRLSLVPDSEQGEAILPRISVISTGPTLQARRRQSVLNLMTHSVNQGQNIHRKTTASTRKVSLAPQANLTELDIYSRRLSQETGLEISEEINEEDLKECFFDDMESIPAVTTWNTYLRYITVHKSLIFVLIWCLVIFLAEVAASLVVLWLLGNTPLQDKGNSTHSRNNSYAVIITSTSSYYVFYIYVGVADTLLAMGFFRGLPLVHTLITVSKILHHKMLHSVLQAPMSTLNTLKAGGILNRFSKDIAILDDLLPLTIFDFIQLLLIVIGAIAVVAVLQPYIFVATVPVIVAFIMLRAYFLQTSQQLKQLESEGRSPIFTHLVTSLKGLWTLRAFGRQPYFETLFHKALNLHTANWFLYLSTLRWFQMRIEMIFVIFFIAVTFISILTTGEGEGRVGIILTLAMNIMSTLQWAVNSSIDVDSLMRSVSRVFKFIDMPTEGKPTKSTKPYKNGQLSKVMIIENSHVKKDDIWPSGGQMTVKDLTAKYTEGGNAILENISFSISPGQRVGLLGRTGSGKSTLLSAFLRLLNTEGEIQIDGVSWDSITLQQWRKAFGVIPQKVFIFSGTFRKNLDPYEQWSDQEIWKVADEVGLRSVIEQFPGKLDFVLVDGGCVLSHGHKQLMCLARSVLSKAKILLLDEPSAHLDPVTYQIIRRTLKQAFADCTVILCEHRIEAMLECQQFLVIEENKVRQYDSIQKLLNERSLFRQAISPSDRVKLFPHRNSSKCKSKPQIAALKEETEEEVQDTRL

T1 sequence (P13569 whole entry): as the sequence (P13569 whole entry R117H) above, with H117R counted along it

SMILES | EC50 [1] [nM] | Ussing chamber transepithelial current, acute potentiation (R117H-CFTR)
Cc1nn(C)cc1S(=O)(=O)NC(=O)c1ccc(-n2ccc(OCC(C)(C)C(F)(F)F)n2)nc1N1C[C@@H](C)CC1(C)C [VX-445, elexacaftor] | 1.5 ± 1.4 | We also found that VX-445 potentiates R117H-CFTR expressed in FRT cells
CC(C)(C)c1cc(C(C)(C)C)c(NC(=O)c2c[nH]c3ccccc3c2=O)cc1O [VX-770, ivacaftor] | – | VX-445 and VX-770 did not exhibit the same high degree of synergy in potentiating R117H-CFTR
